Assay results as given in US6399782B1, “Benzimidazole inhibitors of fructose 1,6-bisphosphatase” (Metabasis Therapeutics, Inc., priority 1997, dated 2002).
Blank lines part the entries; values can stand above or below the compound they belong to.

Assays:
hlFBPase = molecular target: T1, hlFBPase (Homo sapiens, UniProt P09467); test: AMP site binding (displacement of radiolabeled AMP)
T1 construct: made in house; host or cells: E. coli BL21
T1 sequence (P09467 2-338 limits assumed): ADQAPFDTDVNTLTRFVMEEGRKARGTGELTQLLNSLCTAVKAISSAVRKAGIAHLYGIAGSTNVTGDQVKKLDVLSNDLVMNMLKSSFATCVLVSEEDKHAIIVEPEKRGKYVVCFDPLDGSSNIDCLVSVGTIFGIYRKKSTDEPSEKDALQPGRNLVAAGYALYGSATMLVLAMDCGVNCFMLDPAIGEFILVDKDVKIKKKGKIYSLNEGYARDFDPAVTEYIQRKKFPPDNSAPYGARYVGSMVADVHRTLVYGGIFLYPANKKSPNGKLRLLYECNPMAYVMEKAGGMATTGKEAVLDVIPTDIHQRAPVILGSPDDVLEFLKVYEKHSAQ
Method: To determine whether compounds bind to the allosteric AMP binding site of hlFBPase, the enzyme was incubated with radiolabeled AMP in the presence of a range of test compound concentrations. The reaction mixtures consisted of […] ^3H-AMP (54 mCi/mmol) and […] test compound in 25 mM Tris-HCl, pH 7.4, 100 mM KCl and 1 mM MgCl2. 1.45 mg of homogeneous FBPase (±1 nmole) was added last. After a 1 minute incubation, AMP bound to FBPase was separated from unbound AMP by means of a centrifugal ultrafiltration unit (“Ultrafree-MC”, Millipore) used according to the instructions of the manufacturer. The radioactivity in aliquots (100 μL) of the upper compartment of the unit (the retentate, which contrains enzyme and label) and the lower compartment (the filtrate, which contains unbound label) were quantified using a Beckman liquid scintillation counter. The amount of AMP bound to the enzyme was estimated by comparing the counts in the filtrate (the unbound label) to the total counts in the retentate.

mouse liver FBPase = molecular target: T2, mouse liver FBPase (Mus musculus, UniProt Q9QXD6); test: Inhibition of mouse liver FBPase; format: biochemical; conditions: partially purified mouse liver fraction
T2 construct: This partially purified fraction was used for enzyme assays; from tissue; host or cells: mouse liver, 45-75% ammonium sulfate fraction
T2 sequence (Q9QXD6 2-338 limits assumed): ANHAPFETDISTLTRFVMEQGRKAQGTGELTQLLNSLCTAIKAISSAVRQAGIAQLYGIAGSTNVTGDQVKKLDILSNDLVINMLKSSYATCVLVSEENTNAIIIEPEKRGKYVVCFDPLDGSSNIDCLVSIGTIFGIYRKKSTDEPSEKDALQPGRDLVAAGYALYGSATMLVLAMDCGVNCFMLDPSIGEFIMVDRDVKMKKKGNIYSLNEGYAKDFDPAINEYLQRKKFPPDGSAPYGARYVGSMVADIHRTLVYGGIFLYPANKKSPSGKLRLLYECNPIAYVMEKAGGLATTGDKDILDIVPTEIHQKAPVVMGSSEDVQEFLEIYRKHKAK
Method: Enzymatic activity was measured spectrophotometrically in reactions that coupled the formation of product (fructose 6-phosphate) to the reduction of dimethylthiazoldiphenyltetrazolium bromide (MTT) via NADP and phenazine methosulfate (PMS), using phosphoglucose isomerase and glucose 6-phosphate dehydrogenase as the coupling enzymes. Reaction mixtures (200 μl) were made up in 96-well microtitre plates, and consisted of 50 mM Tris-HCl, pH 7.4, 100 mM KCl, 5 mM EGTA, 2 mM MgCl2, 0.2 mM NADP, 1 mg/ml BSA, 1 mM MTT, 0.6 mM PMS, 1 unit/mL phosphoglucose isomerase, 2 units/mL glucose 6-phosphate dehydrogenase, and 0.150 mM substrate (fructose 1,6-bisphosphate). Inhibitor concentrations were varied from 0.01 μM to 10 μM.
Mouse liver FBPase was obtained by homogenizing freshly isolated mouse liver in 100 mM Tris-HCl buffer, pH 7.4, containing 1 mM EGTA, and 10% glycerol. […] This fraction was redissolved in the homogenization buffer and desalted on a PD-10 gel filtration column (Biorad) eluted with same. This partially purified fraction was used for enzyme assays. Both rat liver and mouse liver FBPase were assayed as described for human liver FBPase.

rat hepatocytes = test: Glucose production inhibition and fructose 1,6-bisphosphate accumulation in rat hepatocytes; format: cell-based
Method: Hepatocytes were prepared from overnight fasted Sprague-Dawley rats (250-300 g) according to the procedure of Berry and Friend (Berry, M. N., Friend, D. S., 1969, J. Cell. Biol. 43, 506-520) as modified by Groen (Groen, A. K., Sips, H. J., Vervoorn, R. C., Tager, J. M., 1982, Eur. J. Biochem. 122, 87-93). Hepatocytes (75 mg wet weight/mL) were incubated in 1 ml Krebs-bicarbonate buffer containing 10 mM Lactate, 1 mM pyruvate, 1 mg/mL BSA, and test compound concentrations from 1 to 500 μM. Incubations were carried out in a 95% oxygen, 5% carbon dioxide atmosphere in closed, 50-mL Falcon tubes submerged in a rapidly shaking water bath (37° C.). After 1 hour, an aliquot (0.25 mL) was removed, transferred to an Eppendorf tube and centrifuged. 50 μL of supernatant was then assayed for glucose content using a Sigma Glucose Oxidase kit as per the manufacturer's instructions.
Isolated rat hepatocytes were prepared as described in Example D and incubated under the identical conditions described. […] After thorough mixing and centrifugation, the supernatant was analyzed for glucose content as described in Example D, and also for fructose 1,6-bisphosphate. Fructose 1,6-bisphosphate was assayed spectrophotometrically by coupling its enzymatic conversion to glycerol 3-phosphate to the oxidation of NADH, which was monitored at 340 nm. […]

EC50 (hlFBPase; displacement of 3H-AMP from hlFBPase, read-out: ED50 for AMP displacement): 50 µM
Compound: CCn1c(-c2ccc(P(=O)(O)O)o2)nc2c(N)cccc21 [Compound 12.1, 4-Amino-1-ethyl-2-[2-(5-phosphono)furanyl]benzimidazole]
displacement of AMP from human liver FBPase (FIG. 3) (hlFBPase; result in words): displaced AMP from human liver FBPase in a dose dependent manner

IC50 (mouse liver FBPase): > 20 µM
Compound: Nc1c(F)ccc2c1nc(-c1ccc(P(=O)(O)O)o1)n2CC1CC1 [Compound 12.61, 4-Amino-5-fluoro-1-cyclopropylmethyl-2-(2-phosphono-5-furanyl)benzimidazole]

Compound: CCc1cc(F)c(N)c2nc(-c3ccc(P(=O)(O)O)o3)n(CC(C)C)c12 [Compound 12.64]
IC50 (rat hepatocytes; Hepatocyte, Example F, FIG. 5, read-out: IC50 glucose production from lactate/pyruvate): ~3 µM
accumulation of fructose 1,6-bisphosphate (rat hepatocytes; result in words): dose-dependent accumulation of fructose 1,6 bisphosphate
